Patent publication US9107852B2, “Uses of agonists of delta opioid receptor in cosmetic and dermocosmetic field” (Induchem Holding AG, priority 2012, dated 2015)
Ends that are not written are not given here.

What was measured:
[1] = target: T1, delta2 opioid receptor (Mus musculus, UniProt P32300); test: Agonist effect at the delta2 opioid receptor (DOP), cell impedance; assay type: cell-based
T1 construct: host or cells: unnamed cells 'bearing the delta2 opioid receptor'
Protocol: Frozen spinach leaves were thawed and disrupted in fine particles a blender. This juice was further treated with ultrasounds to disrupt cells and proteins were recovered by acidic precipitation. These proteins were then digested by several enzymes, including pepsin and papain. The hydrolysate was purified (ultrafiltration), fractionated and stored before testing. Meanwhile, synthetic peptides were ordered from a manufacturer. The peptides and the hydrolysates were tested on cells bearing the delta2 opioid receptor and cell impedance was measured to evaluate the binding activity of the tested compounds (Law and Loh, 1993).
The EC50 values (concentration producing a half-maximal specific response) and IC50 values (concentration causing a half-maximal inhibition of the control specific agonist response) were determined by non-linear regression analysis of the concentration-response curves generated with mean replicate values using Hill equation curve fitting (Y=D+[(A D)/(1+(C/C50)nH)], where Y=specific response, D=minimum specific response, A=maximum specific response, C=compound concentration, and C50=EC50 or IC50, and nH=slope factor).

[2] = tested on: reconstructed human epidermis (RHE); test: Gene expression (RT-qPCR array) in inflammatory reconstructed human epidermis; assay type: cell-based; settings: with cytokines and peptide 0.3 PPM; versus non stimulated RHE
Protocol: Transcriptional effects of a peptide (YPLDLF, SEQ ID No 1) on gene expression were researched on a reconstructed human epidermis (RHE) model under inflammatory conditions. The inflammation of the RHE was induced using a mix of cytokines (IL-17+OSM+TNF-α). The effects on gene expression were evaluated using RT-qPCR technology. Extracted mRNA was analyzed on a customized PCR array designed by the study sponsor and containing 64 target genes (including 2 housekeeping genes) selected for their role in keratinocyte differentiation, or their involvement in cell junctions and lipid synthesis, or their relation to opioid receptor delta (DOR).
Reconstructed human epidermis (RHE) of 11 days old was prepared according to a derived method described by Poumay et al. (2004). These RHE were cultivated at 37° C. and 5% of CO2 in a specific maintenance medium.
The RHE were cultured in assay medium containing or not (controls) the test compounds or the reference […] inhibitor I at 10 μM) and pre-incubated for 24 hours. Epidermises were then stimulated or not (non-stimulated control) with a cytokine mix (IL-17+OSM+TNF-α) at 3 ng/ml and the epidermises were incubated for 24 hours. All experimental conditions were performed in n=2.
At the end of incubation, the supernatants were collected and the RHE were washed in phosphate buffered saline solution (PBS) and immediately dry-frozen at −80° C.
The expression of markers was analyzed using RT-qPCR method on mRNA extracted from RHE for each treatment (before RNA extraction the replicates were pooled).
Analysis of gene expression was performed in n=2 using a customized PCR array dedicated to research and adapted to ‘screening’ format.
Total RNA was extracted from each sample using TriPure Isolation Reagent® according to the supplier's instructions. The amount and quality of RNA were evaluated using a lab-on-a-chip Bioanalyzer (Agilent technologies). The RNA quality controls are presented in appendix. Potential contaminant traces of genomic DNA were removed using the DNAfree system (Ambion). The reverse-transcription of mRNA was conducted in presence of oligo(dT) and Superscript II reverse-transcriptase. Quantification of cDNA was performed using Nanovue (GE Healthcare) and adjustment of cDNA at 10 ng/μl.
The PCRs (Polymerase Chain Reactions) were performed using the <<LightCycler®>> system (Roche Molecular System Inc.) according to supplier's instructions. This system allows rapid and powerful PCRs, after determining analysis conditions of the test primers.
The reaction mix (10 μl final) was added as follows: • 2.5 μl of cDNA at 10 ng/μl, • primers forward and reverse, • reagent mix containing taq DNA polymerase, SYBR Green I and MgCl2. Data Management of Quantitative PCR
The incorporation of fluorescence in amplified DNA was continuously measured during the PCR cycles. […] The value selected for RE calculations is the “output point” (Ct) of the fluorescence curve. For a considered marker, the highest is the cycle number; the lowest is the mRNA quantity. The RE value was expressed in arbitrary units (AU) according to the formula: (½^number of cycles)×10^6.

[3] = percent of control specific agonist response (DPDPE)

T1 sequence (P32300 whole entry): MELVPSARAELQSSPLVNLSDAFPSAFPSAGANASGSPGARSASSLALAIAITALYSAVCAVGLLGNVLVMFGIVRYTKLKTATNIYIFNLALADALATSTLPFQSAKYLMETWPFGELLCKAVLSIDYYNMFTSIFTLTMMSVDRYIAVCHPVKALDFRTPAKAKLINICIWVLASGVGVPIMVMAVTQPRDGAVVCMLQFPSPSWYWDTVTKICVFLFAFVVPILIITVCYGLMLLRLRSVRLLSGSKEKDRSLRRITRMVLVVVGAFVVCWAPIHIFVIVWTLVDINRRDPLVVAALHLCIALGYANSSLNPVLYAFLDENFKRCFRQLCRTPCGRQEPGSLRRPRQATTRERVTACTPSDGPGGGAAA

YPLDLF [YPLDLF]
EC50 [1]: 3.9 µM
A (Hill curve fit parameter) [1, 3]: −8.3
D (Hill curve fit parameter) [1, 3]: 100.0
Relative expression of ACSS2 [2]: 113 % Control (Mean HK)
Relative expression of ADRB2 [2]: 259 % Control (Mean HK)
Relative expression of BIRC5 [2]: 88 % Control (Mean HK)
Relative expression of CALML5 (Calmodulin-like 5) [2]: 72 % Control (Mean HK)
Relative expression of CASP3 [2]: 104 % Control (Mean HK)
Relative expression of CDH1 (E-cadherin) [2]: 126 % Control (Mean HK)
Relative expression of CDSN (Corneodesmosin) [2]: 161 % Control (Mean HK)
Relative expression of CLDN1 (Claudin 1) [2]: 128 % Control (Mean HK)
Relative expression of CLDN2 (Claudin 2) [2]: 121 % Control (Mean HK)
Relative expression of CREB1 [2]: 109 % Control (Mean HK)
Relative expression of CRNN (Cornulin) [2]: 71 % Control (Mean HK)
Relative expression of CTNNA1 [2]: 117 % Control (Mean HK)
Relative expression of CTNNB1 [2]: 134 % Control (Mean HK)
Relative expression of DSG1 (Desmoglein 1) [2]: 98 % Control (Mean HK)
Relative expression of DSP (Desmoplakin) [2]: 107 % Control (Mean HK)
Relative expression of DST (Dystonin) [2]: 93 % Control (Mean HK)
Relative expression of EGFR [2]: 141 % Control (Mean HK)
Relative expression of EPPK1 (Epiplakin 1) [2]: 82 % Control (Mean HK)
Relative expression of EVPL (Envoplakin) [2]: 132 % Control (Mean HK)
Relative expression of F11R [2]: 115 % Control (Mean HK)
Relative expression of FLG (Filaggrin) [2]: 117 % Control (Mean HK)
Relative expression of GAPDH [2]: 116 % Control (Mean HK)
Relative expression of GBA [2]: 110 % Control (Mean HK)
Relative expression of GJA1 [2]: 111 % Control (Mean HK)
Relative expression of GJA5 [2]: 90 % Control (Mean HK)
Relative expression of GJB2 [2]: 131 % Control (Mean HK)
Relative expression of GJB3 [2]: 111 % Control (Mean HK)
Relative expression of GJB4 [2]: 77 % Control (Mean HK)
Relative expression of GJB5 [2]: 122 % Control (Mean HK)
Relative expression of GJB6 [2]: 203 % Control (Mean HK)
Relative expression of GJC1 [2]: 126 % Control (Mean HK)
Relative expression of GJD3 [2]: 487 % Control (Mean HK)
Relative expression of GNAS [2]: 130 % Control (Mean HK)
Relative expression of ITGA2 [2]: 108 % Control (Mean HK)
Relative expression of ITGAV [2]: 103 % Control (Mean HK)
Relative expression of IVL (Involucrin) [2]: 119 % Control (Mean HK)
Relative expression of KRT1 (Keratin 1) [2]: 140 % Control (Mean HK)
Relative expression of KRT10 (Keratin 10) [2]: 145 % Control (Mean HK)
Relative expression of KRT19 (Keratin 19) [2]: 134 % Control (Mean HK)
Relative expression of LOR (Loricrin) [2]: 121 % Control (Mean HK)
Relative expression of MAPK1 [2]: 108 % Control (Mean HK)
Relative expression of MAPK14 [2]: 109 % Control (Mean HK)
Relative expression of OCLN (Occludin) [2]: 131 % Control (Mean HK)
Relative expression of ODC1 [2]: 110 % Control (Mean HK)
Relative expression of OPRD1 (Opioid receptor, delta 1) [2]: 101 % Control (Mean HK)
Relative expression of PADI1 [2]: 105 % Control (Mean HK)
Relative expression of PANX1 (Pannexin 1) [2]: 133 % Control (Mean HK)
Relative expression of PTGS2 [2]: 119 % Control (Mean HK)
Relative expression of PVRL1 [2]: 131 % Control (Mean HK)
Relative expression of RPS28 (Ribosomal protein S28) [2]: 91 % Control (Mean HK)
Relative expression of SFN (Stratifin) [2]: 143 % Control (Mean HK)
Relative expression of SLC1A3 [2]: 100 % Control (Mean HK)
Relative expression of SMPD1 [2]: 87 % Control (Mean HK)
Relative expression of SPRR1A [2]: 142 % Control (Mean HK)
Relative expression of SPRR1B [2]: 127 % Control (Mean HK)
Relative expression of SPRR2A [2]: 111 % Control (Mean HK)
Relative expression of SPTLC1 [2]: 120 % Control (Mean HK)
Relative expression of STAT3 [2]: 120 % Control (Mean HK)
Relative expression of SULT2B1 [2]: 173 % Control (Mean HK)
Relative expression of TGM1 (Transglutaminase 1) [2]: 108 % Control (Mean HK)
Relative expression of TJAP1 [2]: 81 % Control (Mean HK)
Relative expression of TJP1 [2]: 129 % Control (Mean HK)
Relative expression of UGCG [2]: 117 % Control (Mean HK)
